Common to all, as to assay type: cell-based
One test deals with C. albicans. Kind of test: antibiotic activity (MIC). Conditions: Candida albicans; C. albicans; read-out: MIC. From the text:
(§1) Thus, it is possible to achieve an antimicrobial steroid with or without squalamine-like pharmacological activity.

A further test concerns E. coli. The experiment in a line: antibiotic activity (MIC). The conditions noted are these: Escherichia coli.
Source text: as §1

In the next test the test system is P. aerug. Kind of test: antibiotic activity (MIC). Conditions: P. aerug; read-out: MIC.
Source text: as §1

The next test has as its system S. aureus. The experiment in a line: antibiotic activity (MIC). The conditions noted are these: Staphylococcus aureus.
Source text: as §1

The test system of test [1] is human microvascular cells. Kind of test: inhibition of endothelial cell cord formation in vitro. Also: key: +: Inhibition of angiogenesis; -: No inhibition of angiogenesis; Toxic; *: cell rounding @ 10 µg/ml. An excerpt: Endothelial cells have the capacity in vitro to form tubular aggregates resembling capillaries in various early stages of formation. This conversion occurs under relatively specific conditions, in which essential growth factors along with an effective substratum are provided. It has been shown that both the interaction of growth factors with the endothelial cell and its attachment to a substratum activate the NHE. The activation of this exchanger is believed to be required for subsequent morphologic transformation of the endothelial cell into a multicellular tubular structure.
To assess the effect of compounds on the cord-like structures formed by human microvascular cells when plated in the presence of VEGF (Vascular Endothelial Growth Factor) and basic fibroblast growth factor on a collagen matrix, a standard cord formation assay was used.

Results on 14 compounds are retold here after patent US5763430A, “Method of treating a viral infection by administering a steroid compound” (priority 1995, dated 1998).

≈ marks a conversion by molar mass, not a printed value. Read-outs that look alike come from different tables or passages of the source.

For the compound `COC(=O)CC[C@@H](C)[C@H]1CC[C@H]2[C@@H]3[C@H](O)C[C@@H]4C[C@H](NCCCNCCCCN)CC[C@]4(C)[C@H]3CC[C@]12C` [Compound 356], the MIC in the test on C. albicans is 64 µg/mL (≈ 120 µM); in the test on E. coli (E. coli, read-out: MIC) it was 32 to 64 µg/mL (≈ 59.9 to 120 µM); in the test on P. aerug it was 64 µg/mL (≈ 120 µM); in the test with S. aureus (S. aureus, read-out: MIC), 4 µg/mL (≈ 7.49 µM).
For the compound `CO[C@@H]1[C@H](OC(=O)/C=C/C=C/C=C/C=C/C(=O)O)CC[C@]2(CO2)[C@H]1[C@@]1(C)O[C@@H]1CC=C(C)C` [Fumagillin, reference compound], the “effect on endothelial cord formation” value in test [1] (0.1 μg/ml) is listed as “-”; in test [1] (10.0 μg/ml), “+”.
Consider `COC(=O)CC[C@@H](C)[C@H]1CC[C@H]2[C@@H]3[C@H](O)C[C@H]4CC(NCCCNCCCCNCCCN)CC[C@]4(C)[C@H]3CC[C@]12C` (stereo partly drawn) [Compound 395], for which the MIC with C. albicans came out at 64 µg/mL (≈ 108 µM); with E. coli (E. coli, read-out: MIC) it was 32 µg/mL (≈ 54.2 µM); in the test on P. aerug, 64 µg/mL (≈ 108 µM); in the test on S. aureus (S. aureus, read-out: MIC), 4 µg/mL (≈ 6.77 µM).
On to `C[C@H](CCC(=O)O)[C@H]1CC[C@H]2[C@@H]3[C@H](O)C[C@H]4C[C@@H](NCCCNCCCCN)CC[C@]4(C)[C@H]3CC[C@]12C` [Compound 381], for which the MIC in the test with C. albicans amounted to 128 µg/mL (≈ 246 µM); in the test on E. coli (E. coli, read-out: MIC), 64 µg/mL (≈ 123 µM); with P. aerug, 32 µg/mL (≈ 61.6 µM); in the test on S. aureus (S. aureus, read-out: MIC), 32 µg/mL (≈ 61.6 µM).
Consider `CC(C)C(O)CC[C@@H](C)[C@H]1CC[C@H]2[C@@H]3[C@H](O)C[C@H]4C[C@H](NCCCNCCCCN)CC[C@]4(C)[C@H]3CC[C@]12C` (stereo partly drawn) [Compound 387, 3α-(1,5,10-Triazadecyl) cholestan-7α,24.xi.-diol], for which the MIC was 64 µg/mL (≈ 117 µM) in the test with C. albicans; 128 µg/mL (≈ 234 µM) with E. coli (E. coli, read-out: MIC); 256 µg/mL (≈ 467 µM) in the test with P. aerug; 16 to 32 µg/mL (≈ 29.2 to 58.4 µM) in the test on S. aureus (S. aureus, read-out: MIC).
Consider `C[C@H](CCC(=O)O)[C@H]1CC[C@H]2[C@@H]3C[C@@H](O)[C@H]4C[C@@H](NCCCNCCCCNCCCN)CC[C@]4(C)[C@H]3CC[C@]12C` [Compound 467], for which the “effect on endothelial cord formation” value in test [1] (1.0 μg/ml) and in test [1] (10.0 μg/ml) was “-” throughout. Further, the MIC with C. albicans came out at 4 µg/mL (≈ 6.93 µM); with E. coli (E. coli, read-out: MIC) it was 16 µg/mL (≈ 27.7 µM); in the test with P. aerug it was 8 µg/mL (≈ 13.9 µM); in the test on S. aureus (S. aureus, read-out: MIC) it was 16 µg/mL (≈ 27.7 µM).
Turning to `CC(C)CCC[C@@H](C)[C@H]1CC[C@H]2[C@@H]3CC[C@H]4C[C@@H](NCCCNCCCCN)CC[C@]4(C)[C@H]3CC[C@]12C` [Compound 303], the MIC in the test with C. albicans is 256 µg/mL (≈ 496 µM); with E. coli (E. coli, read-out: MIC), 128 to 256 µg/mL (≈ 248 to 496 µM); in the test with P. aerug, 128 µg/mL (≈ 248 µM); with S. aureus (S. aureus, read-out: MIC) it was 8 µg/mL (≈ 15.5 µM).
As for `C[C@H](CCC(=O)O)[C@H]1CC[C@H]2[C@@H]3CC[C@H]4C[C@H](NCCCNCCCCN)CC[C@]4(C)[C@H]3CC[C@]12C` [Compound 318], the MIC is greater than 256 µg/mL in the test with C. albicans; 32 µg/mL (≈ 63.5 µM) in the test on E. coli (E. coli, read-out: MIC); 64 µg/mL (≈ 127 µM) in the test with P. aerug; 128 µg/mL (≈ 254 µM) in the test with S. aureus (S. aureus, read-out: MIC).
The matching figures for `CC(C)C(CC[C@@H](C)[C@H]1CC[C@H]2[C@@H]3[C@H](O)C[C@H]4C[C@H](NCCCNCCCCN)CC[C@]4(C)[C@H]3CC[C@]12C)OS(=O)(=O)O` (stereo partly drawn) [Compound 388, 3-Episqualamine]: 16 µg/mL (≈ 25.5 µM), 4 to 8 µg/mL (≈ 6.37 to 12.7 µM), 16 µg/mL (≈ 25.5 µM) and 2 to 4 µg/mL (≈ 3.18 to 6.37 µM).
Regarding `COC(=O)CC[C@@H](C)[C@H]1CC[C@H]2[C@@H]3CC[C@@H]4C[C@H](NCCCNCCCCNCCCN)CC[C@]4(C)[C@H]3C[C@H](O)[C@]12C` [Compound 448], the minimum inhibitory concentration (MIC) in the test with C. albicans stood at 8 µg/mL (≈ 13.5 µM); in the test with E. coli (E. coli, read-out: MIC), 16 µg/mL (≈ 27.1 µM); in the test on P. aerug, 8 µg/mL (≈ 13.5 µM); with S. aureus (S. aureus, read-out: MIC), 2 µg/mL (≈ 3.38 µM).
For the compound `C[C@H](CCC(=O)O)[C@H]1CC[C@H]2[C@@H]3CC[C@@H]4C[C@H](NCCCNCCCCNCCCN)CC[C@]4(C)[C@H]3C[C@H](O)[C@]12C` [Compound 449], the “effect on endothelial cord formation” value in test [1] (1.0 μg/ml) is on record as “-”. The MIC in the test on C. albicans was 4 µg/mL (≈ 6.93 µM); in the test on E. coli (E. coli, read-out: MIC) it was 8 to 16 µg/mL (≈ 13.9 to 27.7 µM); in the test on P. aerug, 4 µg/mL (≈ 6.93 µM); with S. aureus (S. aureus, read-out: MIC), 4 µg/mL (≈ 6.93 µM).
Take `CC(C)CCC[C@@H](C)[C@H]1CC[C@H]2[C@@H]3CC[C@H]4C[C@H](NCCCN5CCCCN=C5N)CC[C@]4(C)[C@H]3CC[C@]12C` [Compound 393]: the MIC is 32 µg/mL (≈ 59.2 µM) in the test on C. albicans, greater than 256 µg/mL with E. coli, greater than 256 µg/mL in the test with P. aerug and 3 µg/mL (≈ 5.55 µM) in the test on S. aureus.
Regarding `COC(=O)CC[C@@H](C)[C@H]1CC[C@H]2[C@@H]3[C@H](O)C[C@H]4C[C@@H](NCCCNCCCCN)CC[C@]4(C)[C@H]3CC[C@]12C` [Compound 380], the MIC was 32 µg/mL (≈ 59.9 µM) in the test on C. albicans; 32 µg/mL (≈ 59.9 µM) in the test with E. coli (E. coli, read-out: MIC); 64 µg/mL (≈ 120 µM) with P. aerug; 4 to 8 µg/mL (≈ 7.49 to 15 µM) in the test with S. aureus (S. aureus, read-out: MIC).
Consider `COC(=O)CC[C@@H](C)[C@H]1CC[C@H]2[C@@H]3[C@H](O)C[C@@H]4C[C@@H](NCCCNCCCCN)CC[C@]4(C)[C@H]3CC[C@]12C` [Compound 355], for which the MIC with C. albicans is 256 µg/mL (≈ 480 µM); in the test with E. coli (E. coli, read-out: MIC) it was 256 µg/mL (≈ 480 µM); with P. aerug, greater than 256 µg/mL; in the test on S. aureus (S. aureus, read-out: MIC) it was 64 µg/mL (≈ 120 µM).

For orientation: MIC means the least concentration at which growth counts as inhibited.
